Laboratory results taken from PMC12190468, “Designing New Chimeric Proline-Rich Antimicrobial Peptides to Enhance Efficacy Toward the ESKAPE+E: Beyond Sequence Extension” (Biomolecules, 2025).
Ends that are not written are not given here.

Columns and labels:
S. aureus ATCC 25923 [1] = format: cell-based, Staphylococcus aureus; settings: ATCC 25923, 18 h
Description: (§1) Reference bacterial strains, including Escherichia coli BW25113, Escherichia coli ATCC 25922, Klebsiella pneumoniae ATCC 700603, Acinetobacter baumannii ATCC 19606, Enterobacter cloacae ATCC 13047, Pseudomonas aeruginosa ATCC 27853, Staphylococcus aureus ATCC 25923, and Enterococcus faecium ATCC 19434, were obtained from the American Type Culture Collection (ATCC) in Manassas, VA, USA. Strains were stored at −80 °C in glycerol stocks until use. For all experiments, cultures were grown in sterile MHB (Difco Inc., Becton Dickinson, Sparks, MD, USA). Overnight cultures were incubated at 37 °C for approximately 18 h under shacking (140 rpm, then diluted 1:30 in fresh MHB and again shaken at 140 rpm for ~2 h to reach the mid-log phase (OD ~0.3 at 600 nm). The bacterial cultures were then diluted to the desired concentration for experiments. E. coli BW25113 ΔsbmA (Keio collection) was grown in MHB with the addition of 50 μg/mL kanamycin (Sigma, Milan, Italy).
(§2) The Minimal Bactericidal Concentration (MBC) was determined by plating 25 μL from clear MIC wells onto MH-agar Petri dishes (Difco Inc., Becton Dickinson, Sparks, MD, USA), followed by overnight incubation at 37 °C. The MBC was the lowest compound concentration, reducing bacterial viability by ≥99.9%. Results were based on at least three independent experiments (n ≥ 3).

P. aeruginosa ATCC 27853 [2] = format: cell-based, Pseudomonas aeruginosa; settings: ATCC 27853, 18 h
Description: as §1, §2

P. aeruginosa ATCC 27853 [3] = format: cell-based, Pseudomonas aeruginosa; settings: ATCC 27853, 18 h; remark: listed apart in the source
Description: as §1
(§3) Antimicrobial activity was assessed using the Minimum Inhibitory Concentration (MIC) assay, following CLSI guidelines. Briefly, peptides were serially diluted in MHB across a 96-well round-bottom plate (Sarstedt, Milan, Italy), starting with 50 μL in the first well. A mid-log bacterial culture was diluted to 5 × 10^5 CFU/mL, and 50 μL of this suspension was added to each well (except the MHB sterility control wells). […] MIC values were confirmed by at least three independent experiments (n ≥ 3).

E. coli BW 25113 ΔsbmA [4] = format: cell-based, Escherichia coli; settings: full MHB, 18 h at 37 °C, mode of at least three independent experiments
Description: as §1, §3

E. coli ATCC 25922 [5] = format: cell-based, Escherichia coli; settings: ATCC 25922, 18 h
Description: as §1, §3

E. coli BW 25113 [6] = format: cell-based, Escherichia coli; settings: full MHB, 18 h at 37 °C, mode of at least three independent experiments
Description: as §1, §3

E. faecium ATCC 19434 [7] = format: cell-based, Enterococcus faecium; settings: ATCC 19434, 18 h
Description: as §1, §3

[8] = system: K. pneumoniae ATCC 700603; format: cell-based, Klebsiella pneumoniae; settings: ATCC 700603, 18 h
Description: as §1, §2

E. coli BW 25113 ΔsbmA [9] = format: cell-based, Escherichia coli; settings: ≥99.9% reduction of viability, after 18 h at 37 °C, mode of at least three independent experiments
Description: as §1, §2

E. coli ATCC 25922 [10] = format: cell-based, Escherichia coli; settings: ATCC 25922, 18 h; remark: listed apart in the source
Description: as §1, §2

E. coli BW 25113 [11] = format: cell-based, Escherichia coli; settings: ≥99.9% reduction of viability, after 18 h at 37 °C, mode of at least three independent experiments
Description: as §1, §2

A549 cells = format: cell-based, human
Description: The human lung carcinoma epithelial cell line (A549) was obtained from the American Type Culture Collection (ATCC) (Manassas, VA, USA). A549 cells were cultured in adhesion flasks (EuroClone, Milan, Italy) with complete Dulbecco’s MEM (DMEM, EuroClone, Milan, Italy) containing high glucose, supplemented with 100 U/mL penicillin, […] streptomycin (Sigma, Milan, Italy), 2 mM L-glutamine, and 10% FBS (Life Technologies, Carlsbad, CA, USA). Cells were incubated at 37 °C with 5% CO2.
Cytotoxicity in A549 cells was assessed using the MTT assay. After reaching confluence, cells were counted using a Bürker–Türk chamber and diluted to 2 × 10^5 cells/mL in DMEM. A total of 100 μL of this suspension was seeded into 96-well plates (Sarstedt, Milan, Italy) and incubated overnight at 37 °C with 5% CO2. The next day, the spent medium was replaced with 100 μL of fresh DMEM medium containing peptide or water at the desired concentration. After 20 h of incubation, 25 μL of 1 mg/mL MTT (Sigma, Milan, Italy) in PBS was added, and the plates were incubated for 4 h in the dark. […] After overnight incubation, absorbance was measured at 570 nm using a Nanoquant Infinite-M200Pro plate reader (Tecan Trading AG, Switzerland). The cytotoxicity was calculated by comparing the OD of treated samples with that of untreated controls. […]

E. faecium ATCC 19434 [12] = format: cell-based, Enterococcus faecium; settings: ATCC 19434, 18 h; remark: listed apart in the source
Description: as §1, §2

S. aureus ATCC 25923 [13] = format: cell-based, Staphylococcus aureus; settings: ATCC 25923, 18 h; remark: listed apart in the source
Description: as §1, §3

A. baumannii ATCC 19606 [14] = format: cell-based, Acinetobacter baumannii; settings: ATCC 19606, 18 h
Description: as §1, §3

A. baumannii ATCC 19606 [15] = format: cell-based, Acinetobacter baumannii; settings: ATCC 19606, 18 h; remark: listed apart in the source
Description: as §1, §2

“WRIRRRWPRLPRPRWRPRFPPPFPIPR [Peptide B7-T11]” was tested, and the MBC (S. aureus ATCC 25923 [1]) was 16 µM, the “MBC (geometric mean)” value (S. aureus ATCC 25923 [1]) was 20,2 µM and the MBC (P. aeruginosa ATCC 27853 [2]) was 16 µM. For the same sequence, the “MBC (geometric mean)” value (P. aeruginosa ATCC 27853 [2]) was 20,2 µM, the MIC (P. aeruginosa ATCC 27853 [3]) was 16 µM and the “MIC (geometric mean)” value (P. aeruginosa ATCC 27853 [3]) was 12,7 µM. The MIC (E. coli BW 25113 ΔsbmA [4]) was 1 µM, the MIC (E. coli ATCC 25922 [5]) was 2 µM and the “MIC (geometric mean)” value (E. coli ATCC 25922 [5]) was 1,3 µM. For the same sequence, the MIC (E. coli BW 25113 [6]) was 1 µM, the MIC (E. faecium ATCC 19434 [7]) was 4 µM and the “MIC (geometric mean)” value (E. faecium ATCC 19434 [7]) was 5,0 µM. For the same sequence, the MBC [8] was 4 µM, the “MBC (geometric mean)” value [8] was 3,2 µM and the MBC (E. coli BW 25113 ΔsbmA [9]) was 2 µM. For the same sequence, the MBC (E. coli ATCC 25922 [10]) was 2 µM, the “MBC (geometric mean)” value (E. coli ATCC 25922 [10]) was 1,3 µM and the MBC (E. coli BW 25113 [11]) was 1 µM. The “Cytotoxicity toward A549 cells (MTT) at 64 µM” value (A549 cells) was “cytotoxic”, the MBC (E. faecium ATCC 19434 [12]) was 32 µM and the “MBC (geometric mean)” value (E. faecium ATCC 19434 [12]) was 40,3 µM. For the same sequence, the MIC (S. aureus ATCC 25923 [13]) was 16 µM, the “MIC (geometric mean)” value (S. aureus ATCC 25923 [13]) was 12,7 µM and the MIC (A. baumannii ATCC 19606 [14]) was 1 µM. The “MIC (geometric mean)” value (A. baumannii ATCC 19606 [14]) was 1,3 µM, the MBC (A. baumannii ATCC 19606 [15]) was 2 µM and the “MBC (geometric mean)” value (A. baumannii ATCC 19606 [15]) was 1,6 µM.
